Entries after “also recorded” stand apart in the source; their conditions may differ.
Assays:
EBs [1] = test: Methylation specific PCR (MSP) and mRNA expression of epigenetically regulated genes in EBs; type: cell-based, human; settings: 48 hrs, 5 ug/ml
Text: Methylation status of several of the epigenetically regulated genes and the imprinted genes in response to exposure to various compounds/drugs or biologicals were screened.

[2] = tested on: hematopoietic precursor cells; settings: report [21]; cited from earlier work
EBs [3] = test: Effect on the germ lineages: RT-PCR of pluripotency and lineage markers in four day old EBs; type: cell-based, human; settings: 12 pg/ml for 2 to 4 days
Protocol: Day 4 to 10 old EBs were maintained for 2 to 10 days in presence or absence of various (atleast 8 different) dilutions of the drug supplemented to the standard EB culture media. At the end of the incubation period the EBs were collected and the RNA is isolated from both the control and treated groups. The RNA was used for RT-PCR analysis of a set of developmentally important genes, pluripotency markers like (Nanog, Oct4, Sox2, and HMGB 1), lineage markers for ectoderm, endoderm, mesoderm and trophectoderm listed in table 1, 2, 3, 4, and also for a set of epigenetic signature genes (table nos. 6-7) identified by applicant. Alteration in the expression patterns of these genes in presence or absence of the compound in these EBs indicates their embryotoxic effect and potential to perturb the formation of specific or multiple lineages.
Four day old EBs were exposed to gram negative bacterial endotoxins/LPS at a concentration of 12 pg/ml for 2 to 4 days. The EBs were collected and analysed for pluripotency markers like Oct4, Sox2, HMGB1, and lineage markers like Nestin, PIII-tubulin, GATA4, BMP2, Brachury, Hand1 and BMP4 were studied, by RT-PCR. […] HMGB 1 expression was not found in these normal EBs. […] However, the mesoderm markers BMP2, Hand1, BMP4 and Brachury were silenced in the endotoxin treated EBs. […] This also explains many birth defects, which occurs as a result of gram negative bacterial infections. The expression of the LPS inducible cytokine and pluripotency associated gene HMGB1 in the EBs upon LPS exposure indicate its probable role in the formation of poorly formed embryos during such infections.

[4] = tested on: EBs derived from hESC line HUES9; test: Immunofluorescence localization of HMGB1 and Brachury in EBs; type: cell-based, human; settings: for Brachury protein expression (immunofluorescence): day 4.5, normal EBs positive
Text: Exposure of EBs to LPS: EBs at day-2.5 were exposed to 12.5 pg/ml of Endotoxin/lipopolysaccharide (LPS) (Sigma) for 48 hrs supplemented in culture medium. […] Post exposure, the control and endotoxin treated EBs were divided in two groups. One group was lysed in TRIZOL for RNA isolation and the other group was fixed in 4% paraformaldehyde for immunofluorescence. The expression profile of the ectoderm, endoderm, mesoderm and trophectoderm lineage markers like PHI-tubulin, GATA4, BMP2, Brachury and β-hCG etc. were studied by RT-PCR and Immunofluorescence. The expression of the LPS-inducible and pluripotency related DNA binding protein HMGB1 was also studied in both the control and treated EBs.
Immunofluorescence and Cell counting: HESCs were grown on coverslips coated with MEFs and then fixed with 4% paraformaldehyde and 5% sucrose (Sigma) followed by permeabilization in 0.2% Triton X100 (Sigma). The slides were then incubated with primary antibodies 1:500 dilution of SSEA4 (Chemicon, Calif., USA), 5 ug/ml Nanog (Santa Cruz Biotechnology, CA, USA), 10 μg/ml Brachury (R&D Systems Inc. Minneapolis, USA), and 1.5 μg/ml HMGB1 (Sigma) overnight at 4° C. After washing thrice with PBS, fluorescein isothiocyanate/Texas red-labeled Secondary antibodies against the primary goat/rabbit/mouse were added as 1:500 dilutions and incubated for 2 hours. DAPI (Sigma) was used for nuclear staining and then washed with PBS. The negative controls were done without primary antibodies. Slides were mounted with DABCC (Sigma) and images were acquired using Nikon Eclipse 90i microscope (Nikon Corporation, Japan) and Image-Pro Express software (Media Cybernetics, Inc, Silver Spring, Md.). The results were then compared with the control cells (non-LPS treated EBs). To count the number of cells per EB, the number of DAPI stained nuclei were counted in 10 each of the control and LPS treated EBs.

HUES 9 EB = test: Expression profiles of lineage, pluripotency, epigenetic and imprinted genes in day 4.5 spherical EBs (HUES 9); type: cell-based, human; design: key: The sign ‘+’ indicates expression of the gene; the sign “−” indicates non-expression of the gene; settings: HUES 9 EB D4.5 LPS
Protocol: RT-PCR: Total RNA from cells was isolated using TRIZOL-LS Reagent (Invitrogen) as per the manufacturer's protocol. Complementary DNA was synthesized using the SuperScript III First-Strand Synthesis System (Invitrogen) as per the manufacturer's instructions. Polymerase Chain Reaction (PCR) was carried out using 1U Tag DNA Polymerase (Sigma) and MgCl2 to a final concentration of 1.5 mM in a total volume of 25 μl/reaction. β-actin and GAPDH were used as the housekeeping controls. PCR cycles consisted of an initial denaturation at 95° C. for 5 minutes followed by 35 amplification cycles of denaturation at 94° C. for 45 seconds, annealing for 45 seconds, and extension at 72° C. for 45 seconds and final extension at 72° C. for 10 minutes.
Examples of changes in the expression profiles/patterns of lineage markers, pluripotency markers, epigenetic markers and imprinted genes, in day 4.5 spherical cavitating/cytic embryoid bodies upon exposure to compounds like lipopolysaccharide (LPS), Rho kinase inhibitor (Y27632), Azacytidine (Aza), and biologicals like an Uvomorulin antibody (UVO) are given in the table nos. 9-12 below. The sign ‘+’ indicates expression of the gene and the sign “−” indicates non-expression of the gene.

In the case of lipopolysaccharide [LPS], the “mRNA expression of SDHD, DYPS and CDH1” value (EBs [1]; control EBs positive) is given as “negative mRNA expression/silencing”, the “methylation status of SDHD, DYPS and CDH1 (MSP after bisulphite treatment)” value (EBs [1]; control: one of the alleles methylated) is given as “both the alleles of these genes were methylated” and the “concentration enough to cause alterations in the proliferation of hematopoietic precursor cells in culture” value [2] is given as 2 to 5 pg/mL. The “expression of Nestin, βIII-tubulin and GATA4 (RT-PCR)” value (EBs [3]) was “positive expression”, the “expression of mesoderm markers BMP2, Hand1, BMP4 and Brachury (RT-PCR)” value (EBs [3]) was “silenced” and the “expression of HMGB1 (RT-PCR)” value (EBs [3]; not found in normal EBs) was “positive expression”. For the same substance, the “Brachury protein expression (immunofluorescence)” value ([4]; 12.5 pg/ml for 48 hrs) was “no signals”, the “Brachury protein expression (immunofluorescence)” value ([4]; 12.5 pg/ml for 48 hrs, listed as lipopolysaccharides) was “loss of expression” and the “localization of HMGB1 (immunofluorescence)” value ([4]; 12.5 pg/ml for 48 hrs, normal EBs lacked signals) was “cytoplasmic localization; also recorded: localized in the cytoplasm”. The “Brachury expression on day 9.5” value ([4]; EBs exposed to 12.5 pg/ml for 48 hrs, tested on day 9.5) was “did not show a positive signal”, the ABCG2 gene expression (HUES 9 EB; control +) was “−” and the BMP4 gene expression (HUES 9 EB; control +) was “−”. The BRACHURY gene expression (HUES 9 EB; control +) was “−”, the CDH1 gene expression (HUES 9 EB; control +) was “−” and the Dlk1 gene expression (HUES 9 EB; control +) was “−”. The GATA2 gene expression (HUES 9 EB; control +) was “−”, the HAND1 gene expression (HUES 9 EB; control +) was “−” and the SDHD gene expression (HUES 9 EB; control +) was “−”. The cTNT gene expression (HUES 9 EB; control +) was “−”, the hANP gene expression (HUES 9 EB; control +) was “−” and the DPYS gene expression (HUES 9 EB; control −) was “+”. For the same substance, the HMGB1 gene expression (HUES 9 EB; control −) was “+”.

Reference: patent US20100248229A1, “INVITRO HUMAN EMBRYONIC MODEL AND A METHOD THEREOF” (Stempeutics Research Private Limited, priority 2007, published 2010)
